For one data set, the target named is Human m1 receptors (Homo sapiens, UniProt P11229). The experiment in a line: biochemical. It is filed as binding.
Data set [1] deals with T1, muscarinic M1 receptors (Rattus norvegicus, UniProt P08482).
T1 construct: The cortex of rat brains obtained from male Sprague-Dawley rats; from tissue; host or cells: rat brain cortex homogenate (male Sprague-Dawley)
T1 sequence (P08482 1-460): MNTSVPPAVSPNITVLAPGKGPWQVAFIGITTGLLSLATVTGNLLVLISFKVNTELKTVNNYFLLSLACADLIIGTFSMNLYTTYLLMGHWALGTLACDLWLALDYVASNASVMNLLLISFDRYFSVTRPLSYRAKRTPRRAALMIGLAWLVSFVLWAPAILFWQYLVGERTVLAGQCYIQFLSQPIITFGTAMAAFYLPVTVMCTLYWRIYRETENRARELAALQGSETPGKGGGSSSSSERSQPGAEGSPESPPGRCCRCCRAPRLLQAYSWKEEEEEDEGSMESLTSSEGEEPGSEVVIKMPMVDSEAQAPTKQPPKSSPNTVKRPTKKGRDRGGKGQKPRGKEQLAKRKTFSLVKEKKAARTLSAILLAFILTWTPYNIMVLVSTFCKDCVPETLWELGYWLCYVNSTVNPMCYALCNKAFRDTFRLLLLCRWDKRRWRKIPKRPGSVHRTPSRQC
The experiment in a line: Tritiated pirenzepine ([^3 H]PZ) binding inhibition, rat brain cortex (M1 binding). The settings on record: [^3 H]PZ 0.5 nM, read-out: M1 Binding % Inhib. of [^3 H] Pz @ 10 μM. Here is the method: The cortex of rat brains obtained from male Sprague-Dawley rats (300 g) are homogenized using a hand-held teflon-coated pestle in 20 volumes of 0.32M sucrose. After centrifugation (747×g for 10 min at 4° C.), the resultant supernatant is decanted and recentrifuged (18677×g for 20 min at 4° C.). The resultant pellet is resuspended in the original volume of 0.32M sucrose and frozen. After thawing, the suspension is diluted (1:1 v/v) with 10 mM Na2 HPO4 /KH2 PO4 buffer (pH=7.4). [^3 H]PZ (0.5 nM, 0.04 μCi) is then incubated in multiple tubes with a 100 μl sample of the tissue suspension and 10 μl of a test compound solution (10 μM in water or ethanol) or vehicle (for control) in a sufficient quantity of the above phosphate buffer to give a total volume of 1 ml. One half of the tubes also contain 2 μM atropine sulfate which binds non-specifically with muscarinic receptors and provides for correcting the data for binding with other muscarinic receptors which may be present. After 60 minutes of incubation as 25° C. in the dark, the binding is terminated by vacuum filtration onto Whatman GF/B filters (pre-soaded for 60 minutes in 0.1% (w/v) polyethylenimine to reduce non-specific binding). After three washes with the phosphate buffer (4° C., 3 ml/wash) the vacuum is allowed to continue for two minutes before the filter-trapped radioactivity is assayed by liquid scintillation spectroscopy. Specific [^3 H]PZ binding is defined as total binding minus binding in the presence of 2 μM atropine sulfate. Data are pesented in Table I below as the percent inhibition ([control-test]/control×100%) of [^3 H]PZ binding by the test or reference compound.

Data set [2] has as its target T1, muscarinic M1 receptors. Described as above.
Data set [3] has as its target T2, M1 acetylcholine receptors (Homo sapiens, UniProt P11229).
T2 sequence (P11229 1-460): T1 sequence (P08482 1-460) with V5A, S254T, S309P, K320R, G337A, V413I
The data set can be described thus: cell-based. The settings on record: CHO, 1 h; read-out: PI Turnover % above baseline.

Data set [4] deals with muscarinic M2 receptors. The experiment in a line: biochemical. The class given is binding, rat. The following applies: selectivity M1 versus M2.
In data set [5] the target is muscarinic M2 receptors (Rattus norvegicus, UniProt P10980). The experiment in a line: biochemical. It is filed as binding.
The next data set has as its system Alzheimer's Disease. The following applies: cited from earlier work; for improvement in memory: patients with mild to moderate Alzheimer's Disease.
The conditions of data set [6]: in vivo; cited from earlier work.
The conditions of data set [7]: quaternary ammonium compounds; cited from earlier work.
The subject of another data set is m1 receptors. The settings on record: cited from earlier work.

Consider 19 compounds from patent US5756501A, “Saturated and unsaturated pyridazino[4,5-B] indolizines useful as antidementia agents” (American Home Products Corporation, priority 1996, dated 1998).

Where a chain is given by its changes, count along the chain named.

Chain of Human m1 receptors (P11229 whole entry): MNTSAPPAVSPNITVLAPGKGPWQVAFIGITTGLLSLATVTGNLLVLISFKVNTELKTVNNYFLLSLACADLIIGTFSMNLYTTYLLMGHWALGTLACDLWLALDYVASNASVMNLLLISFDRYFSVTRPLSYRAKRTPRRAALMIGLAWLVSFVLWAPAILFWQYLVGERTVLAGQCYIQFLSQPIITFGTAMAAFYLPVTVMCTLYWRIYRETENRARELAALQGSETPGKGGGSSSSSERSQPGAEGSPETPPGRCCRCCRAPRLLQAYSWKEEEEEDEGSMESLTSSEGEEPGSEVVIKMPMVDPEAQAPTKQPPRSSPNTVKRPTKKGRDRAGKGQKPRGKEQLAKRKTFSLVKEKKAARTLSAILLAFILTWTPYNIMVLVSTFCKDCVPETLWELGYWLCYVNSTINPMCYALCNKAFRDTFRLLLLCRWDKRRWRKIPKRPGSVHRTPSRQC
Chain of muscarinic M2 receptors (Rattus norvegicus, UniProt P10980) (P10980 whole entry): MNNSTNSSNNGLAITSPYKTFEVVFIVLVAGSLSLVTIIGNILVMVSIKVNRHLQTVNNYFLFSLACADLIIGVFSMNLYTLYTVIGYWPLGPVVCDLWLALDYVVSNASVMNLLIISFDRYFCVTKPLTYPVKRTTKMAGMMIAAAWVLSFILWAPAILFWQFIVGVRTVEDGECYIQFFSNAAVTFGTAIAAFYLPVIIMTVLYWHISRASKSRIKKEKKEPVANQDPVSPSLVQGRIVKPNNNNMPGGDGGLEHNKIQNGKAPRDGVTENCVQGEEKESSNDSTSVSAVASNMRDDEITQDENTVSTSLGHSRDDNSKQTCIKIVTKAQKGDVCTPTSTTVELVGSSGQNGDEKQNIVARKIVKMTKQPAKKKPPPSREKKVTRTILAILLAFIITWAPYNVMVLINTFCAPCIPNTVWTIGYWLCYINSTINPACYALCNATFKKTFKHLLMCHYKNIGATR

On Human m1 receptors, `FC(F)(F)c1nnc(NCCCCN2CC3CCC(CC3)C2)c2cc3ccccn3c12` [Example 1, N-[4-(3-Azabicyclo[3.2.2]non-3-yl)butyl]-4-(trifluoromethyl)pyridazino[4,5b]indolizine-1-amine] yielded a Ki of 240 nM. Regarding `FC(F)(F)c1nnc(NCCCN2CC3CCC(CC3)C2)c2cc3ccccn3c12` [Example 2], on Human m1 receptors, the Ki stood at 140 nM. For the compound `CCN(CC)CCCNc1nnc(COC)c2c1cc1ccccn12` [Example 3, N,N-Diethyl-N'-[4-(methoxymethyl)pyridazino[4,5-b]indolizin-1-yl]-1.3-propanediamine], the inhibition at 10 µM at muscarinic M1 receptors [1] was found to be 98.4%. In the case of `COCc1nnc(NCCCN2CC3CCC(CC3)C2)c2cc3ccccn3c12` [Example 4, N-[3-(3-Azabicyclo[3.2.2]non-3-yl)propyl]-4-(methoxymethyl)pyridazino[4.5-b]indolizin-1-amine], the inhibition at 10 µM on muscarinic M1 receptors [1] turned out to be 100%.

In the case of `COCc1nnc(NCCCCN2CC3CCC(CC3)C2)c2cc3ccccn3c12` [Example 5, N-[4-(3-Azabicyclo[3.2.2]non-3-yl)butyl]-4-(methoxymethyl)pyridazino[4.5-b]indolizin-1-amine], the inhibition at 10 µM at muscarinic M1 receptors [1] turned out to be 100%. On the same count and under the same terms, for `c1ccc(COCc2nnc(NCCN3CCN(c4ncccn4)CC3)c3cc4ccccn4c23)cc1` [Example 6, 4-[(Phenylmethoxy)methyl]-N-[2-[4-(2-pyrimidinyl)-1-piperazinyl]ethyl]pyridazino[4,5-b]indolizin-1-amine] the value was 98.3%; for `CCN(CC)CCCNCc1nnc(NCCCN(CC)CC)c2cc3ccccn3c12` [Example 7, N,N-Diethyl-N'-[4-[[[3-(diethylamino)propyl]amino]methyl]-pyridazino[4.5-b]indolizin-1-yl]-1,3-propanediamine], 99.3%.

As for `CCN(CC)CCCNc1nnc(C)c2c1cc1n2CCCC1` [Example 8, N,N-Diethyl-N'-[6,7,8,9-tetrahydro-4-(methyl)-pyridazino[4,5-b]indolizin-1-yl]-1.3-propanediamine], the inhibition at 10 µM at muscarinic M1 receptors [1] stood at 98%. Regarding `Cc1nnc(NCCN2CC3CCC(CC3)C2)c2cc3n(c12)CCCC3` [Example 9], the affinity on Human m1 receptors, expressed as Ki, was 80 nM. On to `Cc1nnc(NCCCN2CC3CCC(CC3)C2)c2cc3n(c12)CCCC3` [Example 10, N-[3-(3-Azabicyclo[3.2.2]non-3-yl)propyl]-6,7,8,9-tetrahydro-4-(methyl)pyridazino[4,5-b]indolizin-1-amine], for which the affinity on Human m1 receptors, expressed as Ki, was 9 nM.

Regarding `Cc1nnc(NCCCCN2CC3CCC(CC3)C2)c2cc3n(c12)CCCC3` [Example 11, N-[4-(3-Azabicyclo[3.2.2]non-3-yl)butyl]-6,7,8,9-tetrahydro-4-methylpyridazino[4,5-b]indolizin-1-amine], the inhibition at 1 µM at muscarinic M1 receptors [2] (1 μM, rat cortex, [^3 H]PZ 0.5 nM, read-out: M1 Binding % Inhib. of [^3 H] Pz @ 1 μM) is 101%. The Ki on muscarinic M1 receptors [2] (Table II, rat brain M1) was determined as 1.34 nM; on muscarinic M2 receptors [5] it was 13.4 nM. In addition, the Emax in data set [3] amounted to 102%. For the same compound, the “M2/M1 Ki ratio” value in the data set on muscarinic M2 receptors [4] is reported as 10. `FC(F)(F)c1nnc(NCCCCN2CC3CCC(CC3)C2)c2cc3n(c12)CCCC3` [Example 12, N-[4-(3-Azabicyclo[3.2.2]non-3-yl)butyl]-6,7,8,9-tetrahydro-4-(trifluoromethyl)-pyridazino[4,5-b]indolizin-1-amine]: the Ki on Human m1 receptors was found to be 206 nM. For `CCN(CC)CCCNc1nnc(COC)c2c1cc1n2CCCC1` [Example 13, N,N-Diethyl-N'-[6,7,8,9-tetrahydro-4-(methoxymethyl)-pyridazino[4,5-b]indolizin-1-yl]-1.3-propanediamine], the inhibition at 10 µM at muscarinic M1 receptors [1] amounted to 109%. Consider `COCc1nnc(NCCCCN2CC3CCC(CC3)C2)c2cc3n(c12)CCCC3` [Example 14, N-[4-(3-Azabicyclo[3.2.2]non-3-yl)butyl]-6,7,8,9-tetrahydro-4-(methoxymethyl)-pyridazino[4,5-b]indolizin-1-amine], for which, in data set [3], the Emax turned out to be 73%. For the same compound, the inhibition at 10 µM on muscarinic M1 receptors [1] came to 101%. Take `c1ccc(COCc2nnc(NCCCCN3CCOCC3)c3cc4n(c23)CCCC4)cc1` [Example 15, 6,7,8,9,-Tetrahydro-N-[4-(4-morpholinyl)butyl]-4-[(phenylmethoxy)methyl]-pyradazino[4,5-b]indolizin-1-amine]: on muscarinic M1 receptors [1], the inhibition at 10 µM was found to be 100%.

For the compound `COC(=O)C1=CCCN(C)C1` [arecoline], in the data set on Alzheimer's Disease, the improvement in memory entry is listed as “memory improvement in patients with mild to moderate Alzheimer's Disease”. In addition, the half-life entry in [6] was “short half-life”.

For `C[N+](C)(C)CCOC(N)=O` [carbachol], the “ability to cross the blood brain barrier” value in data set [7] is recorded as “not able to cross the blood brain barrier”. With `C[C@@H]1O[C@H](C[N+](C)(C)C)C[C@H]1O` [muscarine], the “ability to cross the blood brain barrier” value in data set [7] is on record as “not able to cross the blood brain barrier”. The “activation of m1 receptors” value in the data set with m1 receptors was “able to fully activate m1 receptors”. Regarding `Nc1c2c(nc3ccccc13)CCCC2` [tacrine], in the data set on Alzheimer's Disease (higher doses), the adverse side effects entry was “adverse side effects especially at the higher doses”. In the data set on Alzheimer's Disease, the improvement in memory result is recorded as “improvement in memory can be shown in patients with mild to moderate Alzheimer's Disease”.
